Residues, ends and D or L forms follow the SMILES beside them.
Experiments:
[1] = Determination of Critical Micelle Concentration (surface tension, Wilhelmy plate); format: physicochemical; conditions: triple distilled water, pH 10, 25±1° C.
Description: Determination of Critical Micelle Concentration. […] Surface tension was measured at 25±1° C. using the Wilhelmy plate technique with a sandblasted platinum plate as the sensor coupled to a Cahn microbalance. The entire assembly was kept in a draft-free plastic cage at a temperature of 25±1° C.

[2] = tested on: Gram-negative and Gram-positive bacteria; conditions: minimal antibacterial effects; typical range; cited from earlier work

Compound	Critical Micelle Concentration (CMC) [1] [mM]	minimum inhibitory concentration (MIC) [2] [µg/mL]
CCCCCCCCCCCCCC(=O)N[C@@H](CCC(=O)O)C(=O)O [myristoyl glutamate]	14.1	–
CC(C)CCCCCCCCC[C@@H]1CC(=O)N[C@@H](CCC(=O)O)C(=O)N[C@@H](CC(C)C)C(=O)N[C@H](CC(C)C)C(=O)N[C@@H](C(C)C)C(=O)N[C@@H](CC(=O)O)C(=O)N[C@H](CC(C)C)C(=O)N[C@@H](CC(C)C)C(=O)O1 [surfactin] (HELM PEPTIDE1{E.L.[dL].V.D.[dL].L}|CHEM1{[CC(C)CCCCCCCCC[C@H](CC(=O)[*:1])O[*:2]]}$PEPTIDE1,CHEM1,1:R1-1:R1|PEPTIDE1,CHEM1,7:R2-1:R2$$$V2.0)	–	12 to 50
CCCCCCCCCCCC(O)CC(=O)N[C@@H](CCC(=O)O)C(=O)O (stereo partly drawn) [FA-Glu, β-hydroxy myristoyl glutamate]	1.3	–

Source: patent US20100093060A1, “GROWTH OF MICROORGANISMS IN CELLULOSIC MEDIA” (priority 2008, published 2010)
